Data as given in publication PMC11405051, “HLA A*24:02–restricted T cell receptors cross-recognize bacterial and preproinsulin peptides in type 1 diabetes” (The Journal of Clinical Investigation, 2024).

How the values were obtained:
[1] = test system: 4C6 T cell clone; assay: Peptide titration activation assay of 4C6 T cell clone, MIP-1β ELISA; assay type: cell-based, human; details: duplicate conditions
Experimental: 4C6 T-cells were rested overnight in R5 media (as for R10 but with 5% FBS) to reduce
spontaneous activation, followed by incubation in the presence of C1R-HLA A*24:02, with peptide mixtures
of defined length and random amino acid sequence (X8-14 in which X is any of the 20 proteogenic L-amino
acids, excluding cysteine) in R5 media overnight at 37°C and 5% CO2. MIP-1β production was measured by
enzyme-linked immunosorbent assay (ELISA, R&D Systems, Bio-Techne, Minneapolis, MN, US) as a proxy
for T cell activation as previously described (22). Peptide mixtures were synthesised at >40% purity
(Pepscan Presto, Lelystad, Netherlands) and stored at -80°C in DMSO at 40 mM. Mixtures were used in
assays at a concentration of 1 mM. Following conformation of the preference of 4C6 T-cells for 9-mer
peptides, nonamer PS-CPL screening was performed using libraries synthesised at >40% purity as
described previously (22, 23, 43). Libraries were stored at -80°C in DMSO at 20 mM. For assays, 6×104
C1R-HLA A*24:02 were pulsed with 100 μM of each CPL library mixture for 2 h at 37°C. Following this,
3×10^4 4C6 T cells were co-incubated with the pulsed C1R-HLA A*24:02 cells overnight at 37°C and 5% CO2.
Assay conditions were performed in duplicate. Supernatants were harvested the following morning and
assayed for the presence of MIP-1β, as above, by ELISA.
universe with bias toward good agonists.

[2] = test system: tetramer-enriched T cell lines from HLA A*24+ healthy donors; assay: Tetramer staining of tetramer-enriched T cell lines from HLA A*24+ healthy donors; assay type: cell-based, human
Experimental: The 4C6 T-cell clone was rested overnight in R5 media, as above then incubated with antigen presenting
cells, with 3 x104 4C6 T-cells and 6 x10^4 antigen presenting cells per well of a 96U well plate. The cells were
incubated overnight in R5 media at 37°C and 5% CO2, with all conditions performed in triplicate.
Supernatants were harvested and MIP-1β or TNF production measured by enzyme-linked immunosorbent
assay (ELISA, R&D Systems, Bio-Techne, Minneapolis, MN, US). Experiment 1 used C1R cells +/- HLA
A*24:02 +/- IGF2BP2 (irrelevant control), gsiA or fes genes. Experiment 2 used THP-1 and A549 cells: WT
and + HLA A*A24:02 +/- gsiA or fes genes. PHA (10 μg/mL) as a positive control and exogenous Klebsiella
peptides at 10 μM for comparison were also included. MIP-1β or TNF values for 4C6 T-cells or antigen
presenting cells incubated alone were subtracted during analysis.

[3] = Supplementary Figure 5, 60 biased-sampling peptides and index, 4C6 overnight with C1R-HLA A24:02, MIP-1β ELISA

Sequence	EC50 [1, 3]	further results
DYQRLVNLL [9-mer drawn by CPL-biased importance sampling]	> 10 µM	
NLMRLMNLA [9-mer drawn by CPL-biased importance sampling]	> 10 µM	
HYQPLVPVL [9-mer drawn by CPL-biased importance sampling]	> 10 µM	
AYAAAAAAL [irrelevant HLA A*24:02 peptide used in control tetramers]		% tetramer+ ([2]; CMV […] tetramer-enriched line, donor 572D, single-staining): 0%; % tetramer+ ([2]; CMV […] tetramer-enriched line, donor BB25, single-staining): 0.05%; % tetramer+ ([2]; CMV […] tetramer-enriched line, donor BB31, single-staining): 0.05%; % tetramer+ ([2]; CMV […] tetramer-enriched line, donor BB51, single-staining): 0.1%; % tetramer+ ([2]; CMV […] tetramer-enriched line, donor BB52, single-staining): 0.04%; % tetramer+ ([2]; CMV […] tetramer-enriched line, donor BB57, single-staining): 0.02%; % tetramer+ ([2]; CMV […] tetramer-enriched line, donor BB64, single-staining): 0.3%; % tetramer+ ([2]; Kleb SLPRLFPLL tetramer-enriched line, donor 572D, single-staining): 0%; % tetramer+ ([2]; Kleb SLPRLFPLL tetramer-enriched line, donor BB25, single-staining): 0.03%; % tetramer+ ([2]; Kleb SLPRLFPLL tetramer-enriched line, donor BB31, single-staining): 0.5%; % tetramer+ ([2]; Kleb SLPRLFPLL tetramer-enriched line, donor BB51, single-staining): 0.1%; % tetramer+ ([2]; Kleb SLPRLFPLL tetramer-enriched line, donor BB52, single-staining): 0%; % tetramer+ ([2]; Kleb SLPRLFPLL tetramer-enriched line, donor BB57, single-staining): 0.06%; % tetramer+ ([2]; Kleb SLPRLFPLL tetramer-enriched line, donor BB64, single-staining): 0.4%
NHPRLVGVI [9-mer drawn by CPL-biased importance sampling]	> 10 µM	
SLLPLLGIL [9-mer drawn by CPL-biased importance sampling]	> 10 µM	
DLQRLVSVI [9-mer drawn by CPL-biased importance sampling]	> 10 µM	
AHPPLFNVM [9-mer drawn by CPL-biased importance sampling]	> 10 µM	
QWPRLVNVF [9-mer drawn by CPL-biased importance sampling]	> 10 µM	
SNMRLMPVV [9-mer drawn by CPL-biased importance sampling]	> 10 µM	
QKQPLLPII [9-mer drawn by CPL-biased importance sampling]	> 10 µM	
EYMPLVGML [9-mer drawn by CPL-biased importance sampling]	> 10 µM	
IWPPLVPVT [9-mer drawn by CPL-biased importance sampling]	> 10 µM	
QMLPLLPLF [9-mer drawn by CPL-biased importance sampling]	> 10 µM	
QMPPLVNIM [9-mer drawn by CPL-biased importance sampling]	> 10 µM	
RYPPLVPML [9-mer drawn by CPL-biased importance sampling]	> 10 µM	
LYQPLVGMV [9-mer drawn by CPL-biased importance sampling]	> 10 µM	
QYLRLFNIT [9-mer drawn by CPL-biased importance sampling]	> 10 µM	
QKQRLASIL [9-mer drawn by CPL-biased importance sampling]	> 10 µM	
RHMRLFGML [9-mer drawn by CPL-biased importance sampling]	> 10 µM	
RLMPLVPVV [9-mer drawn by CPL-biased importance sampling]	> 10 µM	
DHPPLFPMA [9-mer drawn by CPL-biased importance sampling]	> 10 µM	
KWLRLMPMM [9-mer drawn by CPL-biased importance sampling]	> 10 µM	
IWQPLAGVA [9-mer drawn by CPL-biased importance sampling]	> 10 µM	
ILMPLMPMT [9-mer drawn by CPL-biased importance sampling]	> 10 µM	

Sequence	EC50 [1, 3]	further results
QKLPLLGLL [9-mer drawn by CPL-biased importance sampling]	> 10 µM	
EWQPLFSIA [9-mer drawn by CPL-biased importance sampling]	> 10 µM	
ENMPLMPMI [9-mer drawn by CPL-biased importance sampling]	> 10 µM	
EYPPLLNIL [9-mer drawn by CPL-biased importance sampling]	> 10 µM	
QMQRLVNIV [9-mer drawn by CPL-biased importance sampling]	> 10 µM	
DNPRLFGLT [9-mer drawn by CPL-biased importance sampling]	> 10 µM	
DKPRLVPVI [9-mer drawn by CPL-biased importance sampling]	> 10 µM	
NWQPLVSIW [9-mer drawn by CPL-biased importance sampling]	> 10 µM	
NKLRLVNIM [9-mer drawn by CPL-biased importance sampling]	> 10 µM	
DMMPLLPII [9-mer drawn by CPL-biased importance sampling]	> 10 µM	
KNLPLVPII [9-mer drawn by CPL-biased importance sampling]	> 10 µM	
ELPPLMSVW [9-mer drawn by CPL-biased importance sampling]	> 10 µM	
RNPPLVGIW [9-mer drawn by CPL-biased importance sampling]	> 10 µM	
SWLRLFNMM [9-mer drawn by CPL-biased importance sampling]	> 10 µM	
EYPPLVPIL [fungal peptide, Aspergillus niger, Unnamed protein product]		EC50 ([1]; Supplementary Figure 6, top 20 fungal database peptides, 4C6 overnight with C1R HLA A*24:02, MIP-1β ELISA): > 10 µM
HYMPLFGVT [9-mer drawn by CPL-biased importance sampling]	> 10 µM	
ALMRLFSLF [9-mer drawn by CPL-biased importance sampling]	> 10 µM	
LMMPLAPMM [9-mer drawn by CPL-biased importance sampling]	> 10 µM	
SYPPLVGMV [9-mer drawn by CPL-biased importance sampling]	> 10 µM	
LLMPLVGLW [9-mer drawn by CPL-biased importance sampling]	> 10 µM	
RLLPLVSVI [9-mer drawn by CPL-biased importance sampling]	> 10 µM	
EMQPLFGMV [9-mer drawn by CPL-biased importance sampling]	> 10 µM	
SNPPLMGLM [9-mer drawn by CPL-biased importance sampling]	> 10 µM	
QHPPLASLI [9-mer drawn by CPL-biased importance sampling]	> 10 µM	
SMMRLLPVW [9-mer drawn by CPL-biased importance sampling]	> 10 µM	
